According to patent US9809626B2, “Antibacterial agents: salinamide derivatives” (priority 2012, dated 2017):
Values after ≈ are worked out from the molar mass of the structure shown. Numbered stars: 1 amine (or outer) side, 2 acyl side, 3 side chain; on linkers, the order of the positions; unused ones are H or OH. Bridge positions count the residues as written; N and C are the ends. Square brackets hold non-standard residues; d marks the D form. Peptide text beside a SMILES is read from it. * marks the point of attachment. X7 = C[C@@H](Oc1ccc([C@H](N[*:1])C(=O)[*:2])cc1)[C@](O)(/C=C/C(=O)[*:3])CNCCCCCCNC(=O)OC(C)(C)C; X6 = C[C@@H](Oc1ccc([C@H](N[*:1])C(=O)[*:2])cc1)[C@](O)(/C=C/C(=O)[*:3])CNCCCNC(=O)OC(C)(C)C; X4 = CCCCOC[C@@](O)(/C=C/C(=O)[*:3])[C@@H](C)Oc1ccc([C@H](N[*:1])C(=O)[*:2])cc1; X5 = C[C@@H](Oc1ccc([C@H](N[*:1])C(=O)[*:2])cc1)[C@](O)(/C=C/C(=O)[*:3])CO; Pentanoyl(2R-Me,3R-OH,4-Me) = CC(C)[C@@H](O)[C@@H](C)C(=O)*; d(aIle) = CC[C@H](C)[C@@H](N)C(=O)O; d(aThr) = C[C@@H](O)[C@@H](N)C(=O)O; NMeF = CN[C@@H](Cc1ccccc1)C(=O)O

Key:
Sal-resistant mutants [1] = conditions: Ebright et al., WO/2012/129173; cited from earlier work
[2] = test system: Enterobacter cloacae ATCC13047; test: Antibacterial activity, broth microdilution; assay type: cell-based; conditions: Enterobacter cloacae, ATCC13047; minimal concentration resulting in ≧50% inhibition of bacterial growth; read-out: MIC50 Enterobacter cloacae ATCC 13047
Source text: (§1) Antibacterial activity was quantified using broth microdilution [Clinical and Laboratory Standards Institute (CLSI/NCCLS), Methods for Dilution Antimicrobial Susceptibility Tests for Bacteria That Grow Aerobically; Approved Standard, Eighth Edition. CLIS Document M07-A8 (CLIS, Wayne Pa.), 2009]. Assays with Enterobacter cloacae ATCC13047, Pseudomonas aeruginosa ATCC10145, and Escherichia coli D21f2to1C, employed a starting cell density of 2-5×10^5 cfu/ml, Mueller Hinton II cation adjusted broth (BD Biosciences, Inc.), and an air atmosphere. Assays with Haemophilus influenzae ATCC49247 and Neisseria gonorrhoeae ATCC19424 employed a starting cell density of 2-5×10^5 cfu/ml, Haemophilus Test Medium broth (Barry et al., 1993) and a 5% CO2/95% air atmosphere. MIC50 was defined as the minimal concentration resulting in ≧50% inhibition of bacterial growth.

[3] = test system: Escherichia coli D21f2tolC; test: Antibacterial activity, broth microdilution; assay type: cell-based; conditions: Escherichia coli, D21F2TOLC, read-out: MIC50 Escherichia coli D21f2tolC
Source text: as §1

Sal-resistant mutants [4] = test: Cross-resistance of Sal-resistant mutants to other RNAP inhibitors; assay type: cell-based; conditions: disclosed herein

Row | Compound | cross-resistance of Sal-resistant mutants to the compound (Sal-resistant mutants [1]) | MIC50 [2] | MIC50 [3] | cross-resistance of Sal-resistant mutants with the compound (Sal-resistant mutants [4])
1 | ONC(=Nc1ccccc1)c1cccc(C(F)(F)F)c1 [CBR703] | not cross-resistant | – | – | –
2 | CC[C@H](C)[C@H]1NC(=O)[C@@H](NC(=O)[C@H](C)[C@H](O)C(C)C)[C@@H](C)OC(=O)[C@@H]2COC(=O)CNC(=O)/C=C/[C@](O)(CNCCCNC(=O)OC(C)(C)C)[C@@H](C)Oc3ccc(cc3)[C@H](NC1=O)C(=O)N(C)[C@@H](Cc1ccccc1)C(=O)N[C@H]([C@@H](C)O)C(=O)N2 [Sal-NH(CH2)3NHBoc (7), Sal-NH(CH2)3NHBoc] ({Pentanoyl(2R-Me,3R-OH,4-Me)}-T[d(aIle)][X6][NMeF][d(aThr)]S; ester 1-C; linker 3-6 via G) | – | 100 µg/mL (≈ 83.7 µM) | 1.56 µg/mL (≈ 1.31 µM) | –
3 | CC[C@H](C)[C@H]1NC(=O)[C@@H](NC(=O)[C@H](C)[C@H](O)C(C)C)[C@@H](C)OC(=O)[C@@H]2COC(=O)CNC(=O)/C=C/[C@](O)(CNCCCCCCNC(=O)OC(C)(C)C)[C@@H](C)Oc3ccc(cc3)[C@H](NC1=O)C(=O)N(C)[C@@H](Cc1ccccc1)C(=O)N[C@H]([C@@H](C)O)C(=O)N2 [Sal-NH(CH2)6NHBoc (9), Sal-NH(CH2)6NHBoc] ({Pentanoyl(2R-Me,3R-OH,4-Me)}-T[d(aIle)][X7][NMeF][d(aThr)]S; ester 1-C; linker 3-6 via G) | – | 25 µg/mL (≈ 20.2 µM) | 0.78 µg/mL (≈ 0.631 µM) | –
4 | CCCCOC[C@@]1(O)/C=C/C(=O)NCC(=O)OC[C@@H]2NC(=O)[C@@H]([C@@H](C)O)NC(=O)[C@H](Cc3ccccc3)N(C)C(=O)[C@@H](NC(=O)[C@@H]([C@@H](C)CC)NC(=O)[C@@H](NC(=O)[C@H](C)[C@H](O)C(C)C)[C@@H](C)OC2=O)c2ccc(cc2)O[C@@H]1C [Sal-OBu A (5A), Sal-OBu A] ({Pentanoyl(2R-Me,3R-OH,4-Me)}-T[d(aIle)][X4][NMeF][d(aThr)]S; ester 1-C; linker 3-6 via G) | – | 12.5 µg/mL (≈ 11.4 µM) | 1.56 µg/mL (≈ 1.43 µM) | –
5 | CC[C@H](C)[C@H]1NC(=O)[C@@H](NC(=O)[C@H](C)[C@H](O)C(C)C)[C@@H](C)OC(=O)[C@@H]2COC(=O)CNC(=O)/C=C/[C@](O)(CO)[C@@H](C)Oc3ccc(cc3)[C@H](NC1=O)C(=O)N(C)[C@@H](Cc1ccccc1)C(=O)N[C@H]([C@@H](C)O)C(=O)N2 [Sal-OH (4), Sal-OH] ({Pentanoyl(2R-Me,3R-OH,4-Me)}-T[d(aIle)][X5][NMeF][d(aThr)]S; ester 1-C; linker 3-6 via G) | – | 25 µg/mL (≈ 24.1 µM) | 0.78 µg/mL (≈ 0.751 µM) | –
6 | CNC(=O)[C@@H](C)[C@H]1C(=O)/C(=C(O)/C=C/C(C)=C/[C@@H](C)[C@H]2O[C@@]3(C)O[C@H](C=C[C@@]34CO4)[C@@H]2C)C(=O)N1[C@@H]1CC[C@H](O)[C@H](C)O1 [streptolydigin] | – | – | – | do not exhibit cross-resistance
7 | lipiarmycin | – | – | – | do not exhibit cross-resistance
8 | myxopyronin | – | – | – | do not exhibit cross-resistance
